The record followed here is ChEMBL document CHEMBL4483862, “Open-source discovery of chemical leads for next-generation chemoprotective antimalarials” (2018).

This assay relates to Plasmodium berghei. The experiment in a line: Luciferase/luciferin-expressing antifolate-resistant parasites were used to infect a culture of HepG2 cells that were pre-incubated with compounds. Infected hepatocytes emit light due to the luciferase reaction. Assay results are presented as the percent inhibition of light emission compared to control. […]. Particulars: sporozoite; for IC90: read-out: LUCIFERASE INFECTION ASSAY - IC90. The assay is classed as functional.

The mark [1] stands for this setting: read-out: LUCIFERASE INFECTION ASSAY - IC50.

As a reminder, the IC50 is the concentration at which inhibition is half-maximal. What is called IC90 is the point of the concentration-response curve where the effect stands at 90%. `CC(C)(C)c1ccc(-n2c(SCc3ccc(Cl)cc3)nnc2-c2ccccc2Cl)cc1`: the IC90 was > 7.04 µM. In addition, the IC50 (PBLUC_HILL_SLOPE 3.18, PBLUC_R_SQUARED 0.744, read-out: LUCIFERASE INFECTION ASSAY - IC50) was > 7.04 µM.
For the compound `CCc1ccc(CN(C)CC(O)COc2cccc3ccccc23)cc1` (configuration not stated), the IC90 is > 10 µM. Also, under setting [1], the IC50 is > 10 µM.
In the case of `O=C(COC(=O)CNS(=O)(=O)/C=C/c1ccccc1)NC1CCCCC1`, the IC90 was > 10 µM. For the same compound, the IC50 under setting [1] is > 10 µM.
Take `CCCOc1ccc(S(=O)(=O)NC2CCCCC2)c2ccccc12`: the IC90 came to 8.57 µM. The IC50 (HEPG2TOX_HILL_SLOPE 9.17, HEPG2TOX_R_SQUARED 0.712, PBLUC_HILL_SLOPE 2.91, PBLUC_R_SQUARED 0.385, read-out: LUCIFERASE INFECTION ASSAY - IC50) was 4.03 µM.
Take `Cc1ccc(-n2cccc2)c(NC(=O)c2c(-c3c(Cl)cccc3Cl)noc2C)c1`: the IC90 is > 7.74 µM. For the same compound, for the setting “PBLUC_HILL_SLOPE 1.2, PBLUC_R_SQUARED 0.354, read-out: LUCIFERASE INFECTION ASSAY - IC50”, the IC50 is 4.14 µM.
As for `CCS(=O)(=O)N1CCC(C(=O)Nc2nnc(-c3cccc([N+](=O)[O-])c3)o2)(c2ccccc2)CC1`, the IC90 came out at 4.58 µM. Further, the IC50 (HEPG2TOX_HILL_SLOPE 16.8, 22.3, HEPG2TOX_R_SQUARED 0.565, 0.956, PBLUC_HILL_SLOPE 8.45, PBLUC_R_SQUARED 0.439, read-out: LUCIFERASE INFECTION ASSAY - IC50) came out at 3.53 µM.
On to `NC(/C=C/c1cc(C(F)(F)F)cc(C(F)(F)F)c1)=N\O`, for which the IC90 is > 11.1 µM. Besides, the IC50 under setting [1] is > 11.1 µM.
For `CCNC(=O)N1CCc2nc(Nc3cc(C)cc(C)c3)ncc2C1`, the IC90 is > 10.1 µM. Further, under setting [1], the IC50 is > 10.1 µM.
As for `O=C(CCc1c(-c2ccc(F)cc2)[nH]c2ccc(F)cc12)N1CCN(c2ccccn2)CC1`, the IC90 stood at 3.87 µM. The IC50 under setting [1] is 3.16 µM.
With `COc1ccc(Cn2c(C3CC(=O)N(C)C3)nc3ccccc32)cc1` (configuration not stated), the IC90 was > 9.84 µM. For the same compound, the IC50 (PBLUC_HILL_SLOPE 3.53, PBLUC_R_SQUARED 0.0667, read-out: LUCIFERASE INFECTION ASSAY - IC50) stood at 8.05 µM.
Consider `CC1CCC/C(=C(/C#N)c2nc(-c3ccccc3O)cs2)C1` (configuration not stated), for which the IC90 was found to be 5.31 µM. For the same compound, where the note is “HEPG2TOX_HILL_SLOPE 34.1, 11.7, HEPG2TOX_R_SQUARED 0.352, 0.945, PBLUC_HILL_SLOPE 13.4, PBLUC_R_SQUARED 0.235, read-out: LUCIFERASE INFECTION ASSAY - IC50”, the IC50 amounted to 4.51 µM.
As for `O=[N+]([O-])c1cc(Cl)ccc1N1CCN(c2ncnc3sc4c(c23)CCC4)CC1`, the IC90 is > 10 µM. Also, the IC50 (FFLUC_HILL_SLOPE 15.4, FFLUC_R_SQUARED 0.646, read-out: LUCIFERASE INFECTION ASSAY - IC50) is > 10 µM.
Take `Cc1ccc2nc(NC(=O)c3ccc(F)c(F)c3)c(C(=O)NCC(C)C)n2c1`: the IC90 was > 8.54 µM. In addition, the IC50 (PBLUC_HILL_SLOPE 0.472, PBLUC_R_SQUARED 0.144, read-out: LUCIFERASE INFECTION ASSAY - IC50) is > 8.54 µM.
For the compound `COc1ccccc1-c1nc(CCl)cs1`, the IC90 is > 10 µM. Also, under setting [1], the IC50 was > 10 µM.
For the compound `COc1ccc2c(-c3ccccc3)cc(SCC(=O)Nc3sccc3C(N)=O)nc2c1`, the IC90 is 9.16 µM. Moreover, under setting [1], the IC50 turned out to be 7.85 µM.
For the compound `CN(C)c1ccc(-c2cnc3cnc(-c4ccc(CNc5ccccc5)cc4)cn23)cc1`, the IC90 is > 7.87 µM. In addition, the IC50 (PBLUC_HILL_SLOPE 1.8, PBLUC_R_SQUARED 0.529, read-out: LUCIFERASE INFECTION ASSAY - IC50) is 4.22 µM.
With `O=C(CN1CC=C(c2ccccc2)CC1)NC(c1ccccc1)c1ccccc1`, the IC90 was > 10 µM. For the same compound, the IC50 under setting [1] is > 10 µM.
As for `Cc1csc2sc(COC(=O)Nc3ccccc3)c(C)c12`, the IC90 is > 10.4 µM. For the same compound, the IC50 (HEPG2TOX_HILL_SLOPE 0.302, HEPG2TOX_R_SQUARED 0.714, PBLUC_HILL_SLOPE 1.42, PBLUC_R_SQUARED 0.482, read-out: LUCIFERASE INFECTION ASSAY - IC50) was 8.97 µM.
Consider `CCCSc1ccc2c3c(cccc13)C(=O)N(CCc1ccccn1)C2=O`, for which the IC90 was > 8.77 µM. The IC50 under setting [1] is > 8.77 µM.
Take `Cc1sc2ncnc(Sc3nc4ncccn4n3)c2c1C`: the IC90 is > 2 µM. The IC50 under setting [1] was > 2 µM.
Take `Cc1cc(C(=O)CN2C(=O)NC(C)(C3CC3)C2=O)c(C)n1C(c1ccccc1)c1ccccc1` (configuration not stated): the IC90 was determined as 6.7 µM. Besides, the IC50 (FFLUC_HILL_SLOPE 14.7, FFLUC_R_SQUARED 0.253, PBLUC_HILL_SLOPE 1.67, PBLUC_R_SQUARED 0.756, read-out: LUCIFERASE INFECTION ASSAY - IC50) is 1.8 µM.
Turning to `Cc1c(C(=O)O)sc(S(=O)(=O)N2CCN(C(=O)C(C)(C)C)CC2)c1C(=O)O`, the IC90 is > 10 µM. Also, the IC50 under setting [1] was > 10 µM.
For `COc1cc(OC)cc(-c2cnc3cnc(-c4ccc(Cl)cc4)cn23)c1`, the IC90 turned out to be 8.07 µM. Moreover, the IC50 (HEPG2TOX_HILL_SLOPE 2.36, HEPG2TOX_R_SQUARED 0.458, PBLUC_HILL_SLOPE 2.59, PBLUC_R_SQUARED 0.445, read-out: LUCIFERASE INFECTION ASSAY - IC50) turned out to be 3.46 µM.
Take `COc1cc(Nc2cc3c(cn2)cc(-c2cnn(C)c2)n3Cc2ccccc2)cc(OC)c1OC`: the IC90 amounted to 3.72 µM. Also, the IC50 under setting [1] was 3.03 µM.
Regarding `COc1cccc(CNCCCSc2nnnn2-c2ccccc2)c1`, the IC90 was > 9.28 µM. Besides, the IC50 under setting [1] was > 9.28 µM.
Turning to `Clc1nc2ccc3nsnc3c2nc1Cl`, the IC90 was found to be 3.65 µM. Further, for the setting “HEPG2TOX_HILL_SLOPE 109, HEPG2TOX_R_SQUARED 0.525, PBLUC_HILL_SLOPE 3.55, PBLUC_R_SQUARED 0.399, read-out: LUCIFERASE INFECTION ASSAY - IC50”, the IC50 came out at 1.96 µM.
As for `OC1CCC(Nc2nn3c(-c4ccc(F)c(Cl)c4)cnc3s2)CC1` (configuration not stated), the IC90 was > 9 µM. For the same compound, the IC50 under setting [1] is > 9 µM.
Consider `CCOC(=O)c1ccc(N2C(=O)C=CC2=O)cc1`, for which the IC90 was > 13.5 µM. Besides, the IC50 (FFLUC_HILL_SLOPE 9.09, FFLUC_R_SQUARED 0.613, PBLUC_HILL_SLOPE 2.11, PBLUC_R_SQUARED 0.463, read-out: LUCIFERASE INFECTION ASSAY - IC50) came to 7.08 µM.
For `C=CCN(C(=O)c1cc(C2CC2)nc2ccccc12)c1nc2c(s1)CCCC2`, the IC90 was > 10 µM. Further, the IC50 under setting [1] was > 10 µM.
For `Cc1cccc(NC(=O)c2ccc(Cl)c(S(=O)(=O)Nc3c(C)n(C)n(-c4ccccc4)c3=O)c2)n1`, the IC90 was > 10 µM. Besides, the IC50 (PBLUC_HILL_SLOPE 1.97, PBLUC_R_SQUARED 0.221, read-out: LUCIFERASE INFECTION ASSAY - IC50) was found to be 9.2 µM.
On to `c1ccc(-c2csc3nc(-c4ccccn4)nc(NC4CC4)c23)cc1`, for which the IC90 worked out at 4.93 µM. The IC50 under setting [1] turned out to be 2.32 µM.
Consider `O=S(=O)(c1ccc(Cl)s1)N1CCC(C(c2ccccc2)c2ccccc2)CC1`, for which the IC90 was > 7.64 µM. For the same compound, the IC50 (FFLUC_HILL_SLOPE 0.891, FFLUC_R_SQUARED 0.199, PBLUC_HILL_SLOPE 11.4, PBLUC_R_SQUARED 0.0957, read-out: LUCIFERASE INFECTION ASSAY - IC50) was > 7.64 µM.
For the compound `Cc1cccc(-c2nn(-c3ccccc3)cc2/C=C/C(=O)c2c(C)[nH]c(=O)[nH]c2=O)c1`, the IC90 was > 10 µM. In addition, the IC50 (PBLUC_HILL_SLOPE 3.1, PBLUC_R_SQUARED 0.412, read-out: LUCIFERASE INFECTION ASSAY - IC50) came to 5.95 µM.
On to `O=C(NCc1ccccc1OC1CCCC1)Nc1nnc(C2CC2)s1`, for which the IC90 was 7.55 µM. For the same compound, the IC50 (HEPG2TOX_HILL_SLOPE 1.24, HEPG2TOX_R_SQUARED 0.927, PBLUC_HILL_SLOPE 4.07, PBLUC_R_SQUARED 0.516, read-out: LUCIFERASE INFECTION ASSAY - IC50) is 4.4 µM.
`O=C(Nc1cccc(Cl)c1)Nc1ccc2nc(-c3ccc(F)c(Cl)c3)nn2c1`: the IC90 is 7.37 µM. In addition, the IC50 (HEPG2TOX_HILL_SLOPE 11.5, HEPG2TOX_R_SQUARED 0.414, PBLUC_HILL_SLOPE 109, PBLUC_R_SQUARED 0.131, read-out: LUCIFERASE INFECTION ASSAY - IC50) is 7.23 µM.
For `Cc1cc(NC(=O)C(C)n2nc(-c3cccs3)c3ccccc3c2=O)no1` (configuration not stated), the IC90 was > 10 µM. Besides, the IC50 (HEPG2TOX_HILL_SLOPE 9.69, HEPG2TOX_R_SQUARED 0.542, read-out: LUCIFERASE INFECTION ASSAY - IC50) was > 10 µM.
Regarding `O=C(c1cc(-c2ccccc2)[nH]n1)N1CCN(S(=O)(=O)c2ccccc2)CC1`, the IC90 was > 10 µM. Further, the IC50 (PBLUC_HILL_SLOPE 0.361, PBLUC_R_SQUARED 0.34, read-out: LUCIFERASE INFECTION ASSAY - IC50) came out at 1.07 µM.
For `O=C(OCc1ccc(Cl)cc1)c1cnc(NNc2ncc(C(=O)OCc3ccc(Cl)cc3)c(C(F)(F)F)n2)nc1C(F)(F)F`, the IC90 came out at 0.682 µM. Also, the IC50 (FFLUC_HILL_SLOPE 1.7, FFLUC_R_SQUARED 0.396, HEPG2TOX_HILL_SLOPE 1.81, HEPG2TOX_R_SQUARED 0.829, PBLUC_HILL_SLOPE 10.6, PBLUC_R_SQUARED 0.55, read-out: LUCIFERASE INFECTION ASSAY - IC50) stood at 0.554 µM.
With `FC(F)(F)c1cccc(-c2ccc3ncc(-c4ccc5c(c4)OCO5)n3n2)c1`, the IC90 is > 10 µM. The IC50 under setting [1] was > 10 µM.
`Cc1ccsc1C(=O)Nc1ccc(N2CCN(C)CC2)cn1`: the IC90 was 0.343 µM. Also, under setting [1], the IC50 was found to be 0.0143 µM.
`Cc1ccc(C)c(OCC(O)CN2CCc3ccccc3C2)c1` (configuration not stated): the IC90 was > 9.49 µM. Besides, the IC50 under setting [1] was > 9.49 µM.
